For orientation: IC50 means the concentration needed to halve the response being measured.

Test [1] has as its target T1, G12D-mutant human KRAS (amino acid residues 1-188) (Homo sapiens, UniProt P01116, G12D).
T1 construct: G12D or G12C-mutant human KRAS (amino acid residues 1-188) with FLAG tag; made in house; host or cells: E. coli
Kind of test: KRAS Binding Disruption Assay (AlphaScreen; biotinylated KRpep-2d analogue or RAF1-RBD), G12D. To be noted: KRAS G12D; geometric mean; read-out: KRAS GMean IC50 (uM) MUTATION: G12D. The essentials: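 Mutant KRAS (5-20 nM) incubated 1 h at 25° C with test compound and 5-20 nM biotinylated KRpep-2d analogue or RAF1-RBD in 20 mM HEPES pH 7.5, 100 mM NaCl, 5 mM MgCl2, 0.01% Tween-20, 0.01% BSA.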
A general note: In Alpha technology, singlet oxygen from a donor bead excites a nearby acceptor bead.

The target of test [2] is T2, G12V-mutant human KRAS (amino acid residues 1-188) (Homo sapiens, UniProt P01116, G12V).
T2 construct: G12V-mutant human KRAS (amino acid residues 1-188) with FLAG tag was purified from E. coli; made in house; host or cells: E. coli
Kind of test: KRAS Binding Competition Assay (AlphaScreen; biotinylated KRpep-2d analogue), G12V. As to conditions: geometric mean, read-out: KRAS GMean IC50 (uM) MUTATION: G12V.

Each structure is given as a SMILES string.

As for `CN1CCN(CCNC(=O)N2[C@@H]3CC[C@H]2CN(c2nc(OCC4CCCN4C)nc4c(F)c(-c5cc(O)cc6ccccc56)ccc24)C3)CC1` (stereo partly drawn) [P-0416, (1R,5S)-3-(8-fluoro-7-(3-hydroxynaphthalen-1-yl)-2-((1-methylpyrrolidin-2-yl)methoxy)quinazolin-4-yl)-N-(2-(4-methylpiperazin-1-yl)ethyl)-3,8-diazabicyclo[3.2.1]octane-8-carboxamide], the IC50 in test [1] and in test [2] was 10 to 100 µM each time.

In the case of `CN1CCCC1COc1nc(N2C[C@H]3CC[C@@H](C2)N3C(=O)NC2COC(C)(C)C2)c2ccc(-c3cc(O)cc4ccccc34)c(F)c2n1` (stereo partly drawn) [P-0417, (1R,5S)-N-(5,5-dimethyltetrahydrofuran-3-yl)-3-(8-fluoro-7-(3-hydroxynaphthalen-1-yl)-2-((1-methylpyrrolidin-2-yl)methoxy)quinazolin-4-yl)-3,8-diazabicyclo[3.2.1]octane-8-carboxamide], the IC50 in test [1] and in test [2] was 0.0001 to 10 µM throughout.

For the molecule `CCN1CC[C@H](NC(=O)N2[C@@H]3CC[C@H]2CN(c2nc(OCC4CCCN4C)nc4c(F)c(-c5cc(O)cc6ccccc56)ccc24)C3)C1` (stereo partly drawn) [P-0418, (1R,5S)-N-((S)-1-ethylpyrrolidin-3-yl)-3-(8-fluoro-7-(3-hydroxynaphthalen-1-yl)-2-((1-methylpyrrolidin-2-yl)methoxy)quinazolin-4-yl)-3,8-diazabicyclo[3.2.1]octane-8-carboxamide], the IC50 fell in the range of 0.0001 to 10 µM in test [1] and 10 to 100 µM in test [2].

For the molecule `CN1CCCC1COc1nc(N2C[C@H]3CC[C@@H](C2)N3C(=O)NC2CCN(C3CCCCC3)C2)c2ccc(-c3cc(O)cc4ccccc34)c(F)c2n1` (stereo partly drawn) [P-0419, (1R,5S)-N-(1-cyclohexylpyrrolidin-3-yl)-3-(8-fluoro-7-(3-hydroxynaphthalen-1-yl)-2-((1-methylpyrrolidin-2-yl)methoxy)quinazolin-4-yl)-3,8-diazabicyclo[3.2.1]octane-8-carboxamide], the IC50 in test [1] was 0.0001 to 10 µM; in test [2] it was 10 to 100 µM.

Regarding `CONC(=O)N1[C@@H]2CC[C@H]1CN(c1nc(OCC3CCCN3C)nc3c(F)c(-c4cc(O)cc5ccccc45)ccc13)C2` (stereo partly drawn) [P-0420, (1R,5S)-3-(8-fluoro-7-(3-hydroxynaphthalen-1-yl)-2-((1-methylpyrrolidin-2-yl)methoxy)quinazolin-4-yl)-N-methoxy-3,8-diazabicyclo[3.2.1]octane-8-carboxamide], the values for the IC50 in test [1] and in test [2] were 0.0001 to 10 µM and 10 to 100 µM, respectively.

With `CN1CCCC1COc1nc(N2C[C@H]3CC[C@@H](C2)N3C(=O)NC2CN3CCC2CC3)c2ccc(-c3cc(O)cc4ccccc34)c(F)c2n1` (stereo partly drawn) [P-0421, (1R,5S)-3-(8-fluoro-7-(3-hydroxynaphthalen-1-yl)-2-((1-methylpyrrolidin-2-yl)methoxy)quinazolin-4-yl)-N-(quinuclidin-3-yl)-3,8-diazabicyclo[3.2.1]octane-8-carboxamide], the IC50 in test [1] fell in the range of 0.0001 to 10 µM; in test [2], 10 to 100 µM.

As to `CN1CCCC1COc1nc(N2C[C@H]3CC[C@@H](C2)N3C(=O)NO)c2ccc(-c3cc(O)cc4ccccc34)c(F)c2n1` (stereo partly drawn) [P-0422, (1R,5S)-3-(8-fluoro-7-(3-hydroxynaphthalen-1-yl)-2-((1-methylpyrrolidin-2-yl)methoxy)quinazolin-4-yl)-N-hydroxy-3,8-diazabicyclo[3.2.1]octane-8-carboxamide], the IC50 in test [1] and in test [2] was 0.0001 to 10 µM in each case.

On to `CN1CCCC1COc1nc(N2C[C@H]3CC[C@@H](C2)N3C(=O)NCC(N)=O)c2ccc(-c3cc(O)cc4ccccc34)c(F)c2n1` (stereo partly drawn) [P-0423, (1R,5S)-N-(2-amino-2-oxoethyl)-3-(8-fluoro-7-(3-hydroxynaphthalen-1-yl)-2-((1-methylpyrrolidin-2-yl)methoxy)quinazolin-4-yl)-3,8-diazabicyclo[3.2.1]octane-8-carboxamide], for which the IC50 in test [1] and in test [2] was 0.0001 to 10 µM throughout.

As to `CN1CCC[C@H]1COc1nc(N2C[C@H]3CC[C@@H](C2)N3C(=O)[C@@H](N)CO)c2ccc(-c3cc(O)cc4ccccc34)c(F)c2n1` [P-0424, (S)-2-amino-1-((1R,5S)-3-(8-fluoro-7-(3-hydroxynaphthalen-1-yl)-2-(((S)-1-methylpyrrolidin-2-yl)methoxy)quinazolin-4-yl)-3,8-diazabicyclo[3.2.1]octan-8-yl)-3-hydroxypropan-1-one], the results for the IC50 in test [1] and in test [2] were 0.0001 to 10 µM and 10 to 100 µM, respectively.

With `CN1CCC[C@H]1COc1nc(N2C[C@H]3CC[C@@H](C2)N3C(=O)[C@@H]2C[C@@H](O)CN2)c2ccc(-c3cc(O)cc4ccccc34)c(F)c2n1` [P-0425, ((1R,5S)-3-(8-fluoro-7-(3-hydroxynaphthalen-1-yl)-2-(((S)-1-methylpyrrolidin-2-yl)methoxy)quinazolin-4-yl)-3,8-diazabicyclo[3.2.1]octan-8-yl)((2S,4R)-4-hydroxypyrrolidin-2-yl)methanone], the IC50 in test [1] lay within 0.0001 to 10 µM; in test [2] it was 10 to 100 µM.

On to `CNCC(=O)N1[C@@H]2CC[C@H]1CN(c1nc(OC[C@@H]3CCCN3C)nc3c(F)c(-c4cc(O)cc5ccccc45)ccc13)C2` [P-0426, 1-((1R,5S)-3-(8-fluoro-7-(3-hydroxynaphthalen-1-yl)-2-(((S)-1-methylpyrrolidin-2-yl)methoxy)quinazolin-4-yl)-3,8-diazabicyclo[3.2.1]octan-8-yl)-2-(methylamino)ethan-1-one], for which the figures for the IC50 in test [1] and in test [2] were 0.0001 to 10 µM and 10 to 100 µM, respectively.

Take `CN1CCC[C@H]1COc1nc(N2C[C@H]3CC[C@@H](C2)N3CC(=O)N2CCC(N)CC2)c2ccc(-c3cc(O)cc4ccccc34)c(F)c2n1` [P-0427, 1-(4-aminopiperidin-1-yl)-2-((1R,5S)-3-(8-fluoro-7-(3-hydroxynaphthalen-1-yl)-2-(((S)-1-methylpyrrolidin-2-yl)methoxy)quinazolin-4-yl)-3,8-diazabicyclo[3.2.1]octan-8-yl)ethan-1-one]: the values for the IC50 in test [1] and in test [2] were 10 to 100 µM and 100 to 1000 µM, respectively.

Regarding `CN1CCC[C@H]1COc1nc(N2C[C@H]3CC[C@@H](C2)N3CC(=O)N2CCOCC2)c2ccc(-c3cc(O)cc4ccccc34)c(F)c2n1` [P-0428, 2-((1R,5S)-3-(8-fluoro-7-(3-hydroxynaphthalen-1-yl)-2-(((S)-1-methylpyrrolidin-2-yl)methoxy)quinazolin-4-yl)-3,8-diazabicyclo[3.2.1]octan-8-yl)-1-morpholinoethan-1-one], the concentration for half-maximal inhibition (IC50) in test [1] lay within 0.0001 to 10 µM; in test [2], 100 to 1000 µM.

`CN1CCC[C@H]1COc1nc(N2C[C@H]3CC[C@@H](C2)N3C2CNC2)c2ccc(-c3cc(O)cc4ccccc34)c(F)c2n1` [P-0430, 4-(4-((1R,5S)-8-(azetidin-3-yl)-3,8-diazabicyclo[3.2.1]octan-3-yl)-8-fluoro-2-(((S)-1-methylpyrrolidin-2-yl)methoxy)quinazolin-7-yl)naphthalen-2-ol]: the IC50 in test [1] is 10 to 100 µM; in test [2] it was 100 to 1000 µM.

On to `OCCc1nc(N2C[C@H]3CC[C@@H](C2)N3)c2ccc(-c3cc(O)cc4ccccc34)c(F)c2n1` [P-0431, 4-(4-((1R,5S)-3,8-diazabicyclo[3.2.1]octan-3-yl)-8-fluoro-2-(2-hydroxyethyl)quinazolin-7-yl)naphthalen-2-ol], for which the half-maximal inhibitory concentration (IC50) was in the range of 0.0001 to 10 µM in test [1] and 10 to 100 µM in test [2].

As for `CS(=O)(=O)CC(=O)N1[C@@H]2CC[C@H]1CN(c1nc(OCC34CCCN3CCC4)nc3c(F)c(-c4cc(O)cc5ccccc45)ccc13)C2` [P-0432, 1-((1R,5S)-3-(8-fluoro-7-(3-hydroxynaphthalen-1-yl)-2-((tetrahydro-1H-pyrrolizin-7a(5H)-yl)methoxy)quinazolin-4-yl)-3,8-diazabicyclo[3.2.1]octan-8-yl)-2-(methylsulfonyl)ethan-1-one], the half-inhibitory concentration (IC50) in test [1] and in test [2] was 0.0001 to 10 µM each time.

`O=C(Cc1n[nH]c2ccccc12)N1[C@@H]2CC[C@H]1CN(c1nc(OCC34CCCN3CCC4)nc3c(F)c(-c4cc(O)cc5ccccc45)ccc13)C2` [P-0433, 1-((1R,5S)-3-(8-fluoro-7-(3-hydroxynaphthalen-1-yl)-2-((tetrahydro-1H-pyrrolizin-7a(5H)-yl)methoxy)quinazolin-4-yl)-3,8-diazabicyclo[3.2.1]octan-8-yl)-2-(1H-indazol-3-yl)ethan-1-one]: the IC50 in test [1] and in test [2] was 0.0001 to 10 µM in each case.

In the case of `CN1CCN(CCCS(=O)(=O)N2[C@@H]3CC[C@H]2CN(c2nc(OC[C@@H]4CCCN4C)nc4c(F)c(-c5cc(O)cc6ccccc56)ccc24)C3)CC1` [P-0434, 4-(8-fluoro-4-((1R,5S)-8-((3-(4-methylpiperazin-1-yl)propyl)sulfonyl)-3,8-diazabicyclo[3.2.1]octan-3-yl)-2-(((S)-1-methylpyrrolidin-2-yl)methoxy)quinazolin-7-yl)naphthalen-2-ol], the values for the 50% inhibitory concentration (IC50) in test [1] and in test [2] were 0.0001 to 10 µM and 10 to 100 µM, respectively.

Take `Cc1cccc2c1N(c1ccc3c(N4C[C@H]5CC[C@@H](C4)N5)nc(OC[C@@H]4CCCN4C)nc3c1F)CCC2` [P-0435, 4-((1R,5S)-3,8-diazabicyclo[3.2.1]octan-3-yl)-8-fluoro-7-(8-methyl-3,4-dihydroquinolin-1(2H)-yl)-2-(((S)-1-methylpyrrolidin-2-yl)methoxy)quinazoline]: the results for the IC50 in test [1] and in test [2] were 0.0001 to 10 µM and 10 to 100 µM, respectively.

As for `Cc1cccc2c1N(c1ncc3c(N4C[C@H]5CC[C@@H](C4)N5)nc(OC[C@@H]4CCCN4C)nc3c1F)CC(O)C2` (stereo partly drawn) [P-0436, 1-(4-((1R,5S)-3,8-diazabicyclo[3.2.1]octan-3-yl)-8-fluoro-2-(((S)-1-methylpyrrolidin-2-yl)methoxy)pyrido[4,3-d]pyrimidin-7-yl)-8-methyl-1,2,3,4-tetrahydroquinolin-3-ol], the concentration for half-maximal inhibition (IC50) in test [1] was 0.0001 to 10 µM; in test [2], 100 to 1000 µM.

These data come from patent US20230081426A1, “COMPOUNDS AND METHODS FOR KRAS MODULATION AND INDICATIONS THEREFOR” (Plexxikon Inc., priority 2020, published 2023).
